For 25 compounds, Activity results are on record in ChEMBL document CHEMBL4130553, “Cornusides A-O, Bioactive Iridoid Glucoside Dimers from the Fruit of Cornus officinalis” (J Nat Prod, 2017).

Each structure is given as a SMILES string.

The data set relates to HepG2. In words: Cytotoxicity in human HepG2 cells assessed as reduction in cell viability incubated for 48 hrs by MTT assay. In kind it is cell-based. The following applies: hepg2, 48 h.

For the compound `COC(=O)C1=CO[C@@H](O[C@@H]2O[C@H](CO)[C@@H](O)[C@H](O)[C@H]2O)[C@@H]2[C@H](C)[C@@H](O)C[C@H]12`, the Activity result is listed as “Non-Toxic”.

For `COC(=O)C1=CO[C@@H](O[C@@H]2O[C@H](CO)[C@@H](O)[C@H](O)[C@H]2O)[C@@H]2[C@H](C)O[C@@H](OC)C[C@H]12`, the Activity result was “Non-Toxic”.

With `COC(=O)C1=CO[C@@H](O[C@@H]2O[C@H](CO)[C@@H](O)[C@H](O)[C@H]2O)[C@@H]2[C@H](C)O[C@H](OC)C[C@H]12`, the Activity entry was “Non-Toxic”.

Regarding `COC(=O)C1=CO[C@@H](O[C@@H]2O[C@H](CO)[C@@H](O)[C@H](O)[C@H]2O)[C@@H]2[C@H](C)O[C@H](O)C[C@H]12`, the Activity result was “Non-Toxic”.

On to `COC(=O)C1=CO[C@@H](O[C@@H]2O[C@H](CO[C@@H]3C[C@@H]4C(C(=O)OC)=CO[C@@H](O[C@@H]5O[C@H](CO)[C@@H](O)[C@H](O)[C@H]5O)[C@@H]4[C@H](C)O3)[C@@H](O)[C@H](O)[C@H]2O)[C@@H]2[C@@H](C)[C@@H](O)C[C@H]12`, for which the Activity entry was “Non-Toxic”.

`CCO[C@@H]1C[C@@H]2C(C(=O)OC)=CO[C@@H](O[C@@H]3O[C@H](CO)[C@@H](O)[C@H](O)[C@H]3O)[C@@H]2[C@H](C)O1`: the Activity entry is given as “Non-Toxic”.

`COC(=O)C1=CO[C@@H](O[C@@H]2O[C@H](C)[C@@H](O)[C@H](O)[C@H]2O)[C@@H]2[C@H](C)O[C@@H](O[C@@H]3[C@@H](O)[C@H](O[C@@H]4OC=C(C(=O)OC)[C@H]5C[C@@H](OC)O[C@@H](C)[C@@H]45)O[C@H](CO)[C@H]3O)C[C@H]12`: the Activity result was “Non-Toxic”.

On to `COC(=O)C1=CO[C@@H](O[C@@H]2O[C@H](CO)[C@@H](O)[C@H](O)[C@H]2O[C@@H]2C[C@@H]3C(C(=O)OC)=CO[C@@H](O[C@@H]4O[C@H](CO)[C@@H](O)[C@H](O)[C@H]4O)[C@@H]3[C@H](C)O2)[C@@H]2[C@@H](C)[C@@H](O)C[C@H]12`, for which the Activity result is given as “Non-Toxic”.

Take `COC(=O)C1=CO[C@@H](O[C@@H]2O[C@H](C)[C@@H](O)[C@H](O)[C@H]2O)[C@@H]2[C@H](C)O[C@@H](O[C@H]3[C@H](O)[C@@H](O)[C@H](O[C@@H]4OC=C(C(=O)OC)[C@H]5C[C@H](OC)O[C@@H](C)[C@@H]45)O[C@@H]3CO)C[C@H]12`: the Activity entry is “Non-Toxic”.

`COC(=O)C1=CO[C@@H](O[C@@H]2O[C@H](CO)[C@@H](O)[C@H](O)[C@H]2O)[C@@H]2[C@H](C)O[C@H](O[C@H]3[C@H](O[C@@H]4OC=C(C(=O)OC)[C@H]5C[C@H](OC)O[C@@H](C)[C@@H]45)O[C@H](CO)[C@@H](O)[C@@H]3O)C[C@H]12`: the Activity result was “Non-Toxic”.

With `COC(=O)C1=CO[C@@H](O[C@@H]2O[C@H](CO)[C@@H](O)[C@H](O)[C@H]2O)[C@@H]2[C@@H](C)[C@@H](O[C@H]3C[C@@H]4C(C(=O)OC)=CO[C@@H](O[C@@H]5O[C@H](CO)[C@@H](O)[C@H](O)[C@H]5O)[C@@H]4[C@@H](C)O3)C[C@H]12`, the Activity result was “Non-Toxic”.

Consider `CCO[C@H]1C[C@@H]2C(C(=O)OC)=CO[C@@H](O[C@@H]3O[C@H](CO)[C@@H](O)[C@H](O)[C@H]3O)[C@@H]2[C@H](C)O1`, for which the Activity entry is “Non-Toxic”.

As to `COC(=O)C1=CO[C@@H](O[C@@H]2O[C@H](CO[C@@H]3C[C@@H]4C(C(=O)OC)=CO[C@@H](O[C@@H]5O[C@H](CO)[C@@H](O)[C@H](O)[C@H]5O)[C@@H]4[C@H](C)O3)[C@@H](O)[C@H](O)[C@H]2O)[C@@H]2[C@H](C)O[C@H](OC)C[C@H]12`, the Activity result is “Non-Toxic”.

For the compound `COC(=O)C1=CO[C@@H](O[C@@H]2O[C@H](CO)[C@@H](O)[C@H](O)[C@H]2O)[C@@H]2[C@H](C)O[C@@H](O[C@H]3[C@H](O[C@@H]4OC=C(C(=O)OC)[C@H]5C[C@H](OC)O[C@@H](C)[C@@H]45)O[C@H](CO)[C@@H](O)[C@@H]3O)C[C@H]12`, the Activity result is “Non-Toxic”.

As to `CCO[C@@H]1C[C@@H]2C(C(=O)OC)=CO[C@@H](O[C@@H]3O[C@H](CO[C@H]4C[C@@H]5C(C(=O)OC)=CO[C@@H](O[C@@H]6O[C@H](CO)[C@@H](O)[C@H](O)[C@H]6O)[C@@H]5[C@H](C)O4)[C@@H](O)[C@H](O)[C@H]3O)[C@@H]2[C@H](C)O1`, the Activity entry is “Non-Toxic”.

As for `COC(=O)C1=CO[C@@H](O[C@@H]2O[C@H](CO)[C@@H](O)[C@H](O)[C@H]2O)[C@@H]2[C@H](C)O[C@@H](OC[C@H]3O[C@@H](O[C@@H]4OC=C(C(=O)OC)[C@H]5C[C@@H](OC)O[C@@H](C)[C@@H]45)[C@H](O)[C@@H](O)[C@@H]3O)C[C@H]12`, the Activity entry is given as “Non-Toxic”.

`COC(=O)C1=CO[C@@H](O[C@@H]2O[C@H](CO[C@@H]3C[C@@H]4C(C(=O)OC)=CO[C@@H](O[C@@H]5O[C@H](CO)[C@@H](O)[C@H](O)[C@H]5O)[C@@H]4[C@H](C)O3)[C@@H](O)[C@H](O)[C@H]2O)[C@@H]2[C@H](C)O[C@@H](OC)C[C@H]12`: the Activity entry is reported as “Non-Toxic”.

Take `COC(=O)C1=CO[C@@H](O[C@@H]2O[C@H](CO)[C@@H](O[C@H]3C[C@@H]4C(C(=O)OC)=CO[C@@H](O[C@@H]5O[C@H](C)[C@@H](O)[C@H](O)[C@H]5O)[C@@H]4[C@H](C)O3)[C@H](O)[C@H]2O)[C@@H]2[C@@H](C)[C@@H](O)C[C@H]12`: the Activity entry was “Non-Toxic”.

On to `COC(=O)C1=CO[C@@H](O[C@@H]2O[C@H](C)[C@@H](O)[C@H](O)[C@H]2O)[C@@H]2[C@H](C)O[C@@H](O[C@@H]3[C@@H](O)[C@H](O[C@@H]4OC=C(C(=O)OC)[C@H]5C[C@H](OC)O[C@@H](C)[C@@H]45)O[C@H](CO)[C@H]3O)C[C@H]12`, for which the Activity entry was “Non-Toxic”.

As for `COC(=O)C1=CO[C@@H](O[C@@H]2O[C@H](CO)[C@@H](O)[C@H](O)[C@H]2O)[C@@H]2[C@H](C)O[C@H](O[C@H]3[C@H](O[C@@H]4OC=C(C(=O)OC)[C@H]5C[C@@H](OC)O[C@@H](C)[C@@H]45)O[C@H](CO)[C@@H](O)[C@@H]3O)C[C@H]12`, the Activity result is listed as “Non-Toxic”.

Regarding `COC(=O)C1=CO[C@@H](O[C@@H]2O[C@H](CO[C@H]3C[C@@H]4C(C(=O)OC)=CO[C@@H](O[C@@H]5O[C@H](CO)[C@@H](O)[C@H](O)[C@H]5O)[C@@H]4[C@H](C)O3)[C@@H](O)[C@H](O)[C@H]2O)[C@@H]2[C@H](C)O[C@@H](OC)C[C@H]12`, the Activity entry is listed as “Non-Toxic”.

`CCO[C@H]1C[C@@H]2C(C(=O)OC)=CO[C@@H](O[C@@H]3O[C@H](CO[C@H]4C[C@@H]5C(C(=O)OC)=CO[C@@H](O[C@@H]6O[C@H](CO)[C@@H](O)[C@H](O)[C@H]6O)[C@@H]5[C@H](C)O4)[C@@H](O)[C@H](O)[C@H]3O)[C@@H]2[C@H](C)O1`: the Activity result is given as “Non-Toxic”.

For the compound `COC(=O)C1=CO[C@@H](O[C@@H]2O[C@H](CO)[C@@H](O)[C@H](O)[C@H]2O)[C@@H]2[C@@H](C)[C@@H](O)C[C@H]12` [LOGANIN], the Activity result is “Non-Toxic”.

For `COC(=O)C1=CO[C@@H](O[C@@H]2O[C@H](CO)[C@@H](O)[C@H](O)[C@H]2O)[C@@H]2[C@H](C)O[C@@H](O)C[C@H]12` [MORRONISIDE], the Activity entry is given as “Non-Toxic”.

Consider `C=C[C@H]1[C@H](O[C@@H]2O[C@H](CO)[C@@H](O)[C@H](O)[C@H]2O)OC=C2C(=O)OCC[C@H]21` [SWEROSIDE], for which the Activity entry was “Non-Toxic”.
